Test results: US20250026752A1, “POSITIVE ALLOSTERIC MODULATORS OF THE MUSCARINIC ACETYLCHOLINE RECEPTOR M4” (Vanderbilt University, priority 2021, published 2025)

Target: T1, human mAChR M4 (Homo sapiens, UniProt P08173)
T1 construct: expressed in transfected cells; host or cells: CHO-K1 (ATCC), stably expressing hM4 and Gqi5
T1 sequence (P08173 1-479): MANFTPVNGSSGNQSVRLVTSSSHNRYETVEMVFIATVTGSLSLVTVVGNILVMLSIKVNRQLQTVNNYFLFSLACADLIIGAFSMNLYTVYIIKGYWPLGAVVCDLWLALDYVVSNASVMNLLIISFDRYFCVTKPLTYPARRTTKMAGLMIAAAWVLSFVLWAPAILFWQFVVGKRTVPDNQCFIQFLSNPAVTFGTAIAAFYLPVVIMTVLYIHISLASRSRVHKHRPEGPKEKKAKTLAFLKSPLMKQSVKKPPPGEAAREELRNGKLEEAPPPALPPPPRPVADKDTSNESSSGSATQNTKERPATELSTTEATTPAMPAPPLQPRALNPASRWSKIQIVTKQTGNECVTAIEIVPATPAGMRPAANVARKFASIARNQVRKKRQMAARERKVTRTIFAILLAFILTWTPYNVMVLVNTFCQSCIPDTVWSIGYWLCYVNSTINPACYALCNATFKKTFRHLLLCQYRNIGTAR
Assay: mAChR M4 cell-based functional assay: calcium flux (Fluo-4, FDSS), positive allosteric modulator activity on the EC20 acetylcholine response, hM4-Gqi5 CHO-K1 cells
Details: for Emax at 30 µM: CHO-K1, human M4; for EC50: PAM activity on EC20 acetylcholine response, calcium flux, read-out: Human M4 EC50
Method: Human M4 cDNA, along with the chimeric G protein Gqi5, were transfected into Chinese hamster ovary (CHO-K1) cells purchased from the American Type Culture Collection using commercially available Lipofectamine 2000 transfection reagent (Dalby, B. et al., Methods (2004) 33(2), 95-103). hM4-Gqi5 cells were grown in Ham's F-12 medium containing 10% heat-inactivated fetal bovine serum (FBS), 20 mM […], 50 μg/mL G418 sulfate (CAS #108321-42-2), and 500 μg/mL Hygromycin B. rM4-Gqi5 cells were grown in DMEM containing 10% heat-inactivated FBS, 20 mM HEPES, 400 μg/mL G418 sulfate, and 500 μg/mL Hygromycin B.
For high throughput measurement of agonist-evoked increases in intracellular calcium, CHO-K1 cells stably expressing muscarinic receptors were plated in growth medium lacking G418 sulfate and hygromycin at 15,000 cells/20 μL/well in Greiner 384-well black-walled, tissue culture (TC)-treated, clear-bottom plates (VWR). Cells were incubated overnight at 37° C. and 5% C02. The next day, cells were washed using an ELX 405 (BioTek) with assay buffer; the final volume was then aspirated to 20 μL. Next, 20 μL of a 2.3 μM stock of Fluo-4/acetoxymethyl ester (Invitrogen, Carlsbad, CA), prepared as a 2.3 mM stock in DMSO and mixed in a 1:1 ratio with 10% (w/v) Pluronic F-127 and diluted in assay buffer, was added to the wells and the cell plates were incubated for 50 minutes at 37° C. and 5% C02. Dye was removed by washing with the ELX 405 and the final volume was aspirated to 20 μL. Compound master plates were formatted in an 11 point concentration-response curve (CRC) format (1:3 dilutions) in 100% DMSO with a starting concentration of 10 mM using a BRAVO liquid handler (Agilent). Test compound CRCs were then transferred to daughter plates (240 nL) using the Echo acoustic plate reformatter (Labcyte, Sunnyvale, CA) and then diluted into assay buffer (40 μL) to a 2× stock using a Thermo Fisher Combi (Thermo Fisher Scientific, Waltham, MA).
Calcium flux was measured using the Functional Drug Screening System (FDSS) 6000 or 7000 (Hamamatsu Corporation, Tokyo, Japan) as an increase in the fluorescent static ratio. Compounds were applied to cells (20 μL, 2×) using the automated system of the FDSS at 2-4 seconds into the protocol and the data were collected at 1 Hz. At 144 seconds, 10 μL of an EC20 concentration of the muscarinic receptor agonist acetylcholine was added (5×), followed by the addition of 12 μL of an EC80 concentration of acetylcholine at the 230 second time point (5×). Agonist activity was analyzed as a concentration-dependent increase in calcium mobilization upon compound addition. Positive allosteric modulator activity was analyzed as a concentration-dependent increase in the EC20 acetylcholine response. With the acetylcholine EC20 set as baseline, the test compound EC50 is determined as the concentration that produces an increase above baseline of 50% of the maximum increase in acetylcholine response elicted by the test compound. Antagonist activity was analyzed as a concentration-dependent decrease in the ECso acetylcholine response. Concentration-response curves were generated using a four-parameter logistical equation in XLFit curve fitting software (IDBS, Bridgewater, NJ) for Excel (Microsoft, Redmond, WA) or Prism (GraphPad Software, Inc., San Diego, CA).
Compounds were synthesized as described above. Activity (EC50 and Emax) was determined in the mAChR M4 cell-based functional assay as described above and the data are shown in Table 4. The compound numbers correspond to the compound numbers used in Examples 1-33 and Tables 1, 2, and 3.

Compound	Emax at 30 µM (% ACh maximum at 30 μM)	EC50 (human M4)	Emax (%) (human M4, % ACh maximum at 30 μM)
CC1CN(c2ncnc3ccc(F)cc23)Cc2cc(C(F)(F)F)cnc21 (single isomer, unassigned) [Compound 116, 6-fluoro-4-[(8R or S)-8-methyl-3-(trifluoromethyl)-7,8-dihydro-5H-1,6-naphthyridin-6-yl]quinazoline]	113%	70 nM	
CC1CN(c2ncnc3ccc(F)cc23)Cc2cc(C(F)(F)F)cnc21 (single isomer, unassigned) [Compound 117, 6-fluoro-4-[(8R or S)-8-methyl-3-(trifluoromethyl)-7,8-dihydro-5H-1,6-naphthyridin-6-yl]quinazoline]		400 nM	100%
Fc1ccc2ncnc(N3CCc4ncc(-c5cnn(C6CC6)c5)cc4C3)c2c1 [Compound 1, 4-[3-(1-cyclopropylpyrazol-4-yl)-7,8-dihydro-5H-1,6-naphthyridin-6-yl]-6-fluoro-quinazoline]	99%	130 nM	
Cc1noc(C)c1-c1cnc2c(c1)CN(c1ncnc3ccc(Cl)cc13)CC2 [Compound 2, 4-[6-(6-chloroquinazolin-4-yl)-7,8-dihydro-5H-1,6-naphthyridin-3-yl]-3,5-dimethyl-isoxazole]	86%	60 nM	
Cc1nc(N2CCc3ncc(-c4ccc(C(F)(F)F)nc4)cc3C2)c2cc(F)ccc2n1 [Compound 3, 6-fluoro-2-methyl-4-[3-[6-(trifluoromethyl)-3-pyridyl]-7,8-dihydro-5H-1,6-naphthyridin-6-yl]quinazoline]	75%	460 nM	
Cc1nc(N2CCc3ncc(-c4ccc(C(F)(F)F)nc4)cc3C2)c2cc(Cl)ccc2n1 [Compound 4, 6-chloro-2-methyl-4-[3-[6-(trifluoromethyl)-3-pyridyl]-7,8-dihydro-5H-1,6-naphthyridin-6-yl]quinazoline]	57%	860 nM	
Cc1nc(N2CCc3ncc(-c4cn(C)nc4C)cc3C2)c2cc(Cl)ccc2n1 [Compound 7, 6-chloro-4-[3-(1,3-dimethylpyrazol-4-yl)-7,8-dihydro-5H-1,6-naphthyridin-6-yl]-2-methyl-quinazoline]	93%	250 nM	
Cc1nn(C)cc1-c1cnc2c(c1)CN(c1nc(Cl)nc3ncccc13)CC2 [Compound 9, 2-chloro-4-[3-(1,3-dimethylpyrazol-4-yl)-7,8-dihydro-5H-1,6-naphthyridin-6-yl]pyrido[2,3-d]pyrimidine]	66%	2490 nM	
Cc1nc(N2CCc3ncc(-c4cn(C)nc4C)cc3C2)c2cc(F)ccc2n1 [Compound 10, 4-[3-(1,3-dimethylpyrazol-4-yl)-7,8-dihydro-5H-1,6-naphthyridin-6-yl]-6-fluoro-2-methyl-quinazoline]	90%	120 nM	
COc1ccc2ncnc(N3CCc4ncc(-c5cn(C)nc5C)cc4C3)c2c1 [Compound 13, 4-[3-(1,3-dimethylpyrazol-4-yl)-7,8-dihydro-5H-1,6-naphthyridin-6-yl]-6-methoxy-quinazoline]	109%	370 nM	
Fc1ccc2ncnc(N3CCc4ncc(-c5ccc(C(F)(F)F)nc5)cc4C3)c2c1 [Compound 16, 6-fluoro-4-[3-[6-(trifluoromethyl)-3-pyridyl]-7,8-dihydro-5H-1,6-naphthyridin-6-yl]quinazoline]	89%	360 nM	
Cc1nc(N2CCc3ncc(-c4cnn(C5CC5)c4)cc3C2)c2cc(Cl)ccc2n1 [Compound 19, 6-chloro-4-[3-(1-cyclopropylpyrazol-4-yl)-7,8-dihydro-5H-1,6-naphthyridin-6-yl]-2-methyl-quinazoline]	80%	390 nM	

The next lines start with the values.

Emax at 30 µM (% ACh maximum at 30 μM)	EC50 (human M4)	Emax (%) (human M4, % ACh maximum at 30 μM)	Compound
93%	60 nM		CC1CN(c2ncnc3ccc(F)cc23)Cc2cc(C(F)(F)F)cnc21 (racemic) [Compound 115, 6-fluoro-4-[8-methyl-3-(trifluoromethyl)-7,8-dihydro-5H-1,6-naphthyridin-6-yl]quinazoline]
80%	340 nM		Cc1nc(N2CCc3ncc(-c4cnn(C5CC5)c4)cc3C2)c2cc(F)ccc2n1 [Compound 5, 4-[3-(1-cyclopropylpyrazol-4-yl)-7,8-dihydro-5H-1,6-naphthyridin-6-yl]-6-fluoro-2-methyl-quinazoline]
88%	70 nM		Cc1nn(C)cc1-c1cnc2c(c1)CN(c1ncnc3ccc(Cl)cc13)CC2 [Compound 6, 6-chloro-4-[3-(1,3-dimethylpyrazol-4-yl)-7,8-dihydro-5H-1,6-naphthyridin-6-yl]quinazoline]
87%	60 nM		Cc1nn(C)cc1-c1cnc2c(c1)CN(c1ncnc3cc(F)c(F)cc13)CC2 [Compound 8, 4-[3-(1,3-dimethylpyrazol-4-yl)-7,8-dihydro-5H-1,6-naphthyridin-6-yl]-6,7-difluoro-quinazoline]
83%	100 nM		Cc1nn(C)cc1-c1cnc2c(c1)CN(c1ncnc3ccc(F)cc13)CC2 [Compound 11, 4-[3-(1,3-dimethylpyrazol-4-yl)-7,8-dihydro-5H-1,6-naphthyridin-6-yl]-6-fluoro-quinazoline]
114%	230 nM		Cc1ccc2ncnc(N3CCc4ncc(-c5cnn(C6CC6)c5)cc4C3)c2c1 [Compound 12, 4-[3-(1-cyclopropylpyrazol-4-yl)-7,8-dihydro-5H-1,6-naphthyridin-6-yl]-6-methyl-quinazoline]
117%	160 nM		Cc1ccc2ncnc(N3CCc4ncc(-c5cn(C)nc5C)cc4C3)c2c1 [Compound 14, 4-[3-(1,3-dimethylpyrazol-4-yl)-7,8-dihydro-5H-1,6-naphthyridin-6-yl]-6-methyl-quinazoline]
105%	40 nM		Cn1cc(-c2cnc3c(c2)CN(c2ncnc4ccc(F)cc24)CC3)cn1 [Compound 15, 6-fluoro-4-[3-(1-methylpyrazol-4-yl)-7,8-dihydro-5H-1,6-naphthyridin-6-yl]quinazoline]
78%	120 nM		Clc1ccc2ncnc(N3CCc4ncc(-c5cnn(C6CC6)c5)cc4C3)c2c1 [Compound 17, 6-chloro-4-[3-(1-cyclopropylpyrazol-4-yl)-7,8-dihydro-5H-1,6-naphthyridin-6-yl]quinazoline]
70%	40 nM		Cn1nccc1-c1cnc2c(c1)CN(c1ncnc3ccc(F)cc13)CC2 [Compound 18, 6-fluoro-4-[3-(2-methylpyrazol-3-yl)-7,8-dihydro-5H-1,6-naphthyridin-6-yl]quinazoline]
86%	150 nM		Cc1nc(N2CCc3ncc(-c4ccnn4C)cc3C2)c2cc(F)ccc2n1 [Compound 20, 6-fluoro-2-methyl-4-[3-(2-methylpyrazol-3-yl)-7,8-dihydro-5H-1,6-naphthyridin-6-yl]quinazoline]
